Source: ChEMBL document CHEMBL1146870, “N-Tetrahydroquinolinyl, N-quinolinyl and N-isoquinolinyl biaryl carboxamides as antagonists of TRPV1” (Bioorg Med Chem Lett, 2006)

Legend:
[1] = molecular target: T1, Transient receptor potential cation channel subfamily V member 1 (Homo sapiens, UniProt Q8NER1); test: Antagonist activity against human TRPV1 assessed as inhibition of acid-induced calcium influx by FLIPR assay; assay type: functional
[2] = molecular target: Transient receptor potential cation channel subfamily V member 1 (Rattus norvegicus, UniProt O35433); test: Antagonist activity against rat TRPV1 assessed as inhibition of acid-induced calcium influx by FLIPR assay; assay type: functional
Sequence of Transient receptor potential cation channel subfamily V member 1 (Rattus norvegicus, UniProt O35433) (O35433 whole entry): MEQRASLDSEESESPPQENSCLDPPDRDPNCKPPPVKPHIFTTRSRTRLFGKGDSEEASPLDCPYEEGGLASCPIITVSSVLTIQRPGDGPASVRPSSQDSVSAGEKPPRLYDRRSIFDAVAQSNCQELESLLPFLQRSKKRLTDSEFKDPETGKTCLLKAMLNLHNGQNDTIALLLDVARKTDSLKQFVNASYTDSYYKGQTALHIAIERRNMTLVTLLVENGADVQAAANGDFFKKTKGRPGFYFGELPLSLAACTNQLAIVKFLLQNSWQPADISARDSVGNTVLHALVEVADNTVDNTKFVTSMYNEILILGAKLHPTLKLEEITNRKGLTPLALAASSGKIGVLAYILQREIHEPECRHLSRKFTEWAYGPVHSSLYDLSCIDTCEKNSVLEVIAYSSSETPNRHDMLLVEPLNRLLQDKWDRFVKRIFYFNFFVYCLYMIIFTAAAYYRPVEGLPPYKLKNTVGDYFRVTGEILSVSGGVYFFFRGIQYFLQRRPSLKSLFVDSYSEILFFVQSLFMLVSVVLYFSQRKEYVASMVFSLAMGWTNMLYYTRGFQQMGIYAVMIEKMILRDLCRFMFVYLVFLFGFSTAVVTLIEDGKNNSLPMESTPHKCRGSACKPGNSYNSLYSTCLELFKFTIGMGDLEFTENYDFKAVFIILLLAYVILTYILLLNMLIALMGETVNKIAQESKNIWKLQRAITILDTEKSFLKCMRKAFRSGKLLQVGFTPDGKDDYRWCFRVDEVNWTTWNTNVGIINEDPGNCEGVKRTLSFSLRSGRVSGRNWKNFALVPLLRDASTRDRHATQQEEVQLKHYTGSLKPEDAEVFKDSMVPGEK

[3] = species on record: Homo sapiens; test: Intrinsic clearance in human liver microsomes; assay type: ADME, Microsome
[4] = molecular target: Cytochrome P450 2C9 (Homo sapiens, UniProt P11712); test: Inhibition of cytochrome P450 2C9; assay type: ADME
Sequence of Cytochrome P450 2C9 (P11712 whole entry): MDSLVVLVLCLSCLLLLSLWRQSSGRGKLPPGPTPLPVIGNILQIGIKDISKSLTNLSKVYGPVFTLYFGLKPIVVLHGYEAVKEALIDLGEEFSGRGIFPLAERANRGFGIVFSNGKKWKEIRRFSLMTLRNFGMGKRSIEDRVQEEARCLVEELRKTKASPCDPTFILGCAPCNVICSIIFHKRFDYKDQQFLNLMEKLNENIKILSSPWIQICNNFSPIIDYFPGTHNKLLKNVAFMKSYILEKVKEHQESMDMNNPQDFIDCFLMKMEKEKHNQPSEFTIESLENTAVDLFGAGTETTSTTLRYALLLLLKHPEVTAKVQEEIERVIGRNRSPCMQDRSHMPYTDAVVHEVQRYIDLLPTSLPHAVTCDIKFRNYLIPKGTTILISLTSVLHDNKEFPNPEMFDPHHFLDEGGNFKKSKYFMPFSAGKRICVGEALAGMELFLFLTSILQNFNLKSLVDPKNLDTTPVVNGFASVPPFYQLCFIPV

[5] = molecular target: Cytochrome P450 2C19 (Homo sapiens, UniProt P33261); test: Inhibition of cytochrome P450 2C19; assay type: ADME
Sequence of Cytochrome P450 2C19 (P33261 whole entry): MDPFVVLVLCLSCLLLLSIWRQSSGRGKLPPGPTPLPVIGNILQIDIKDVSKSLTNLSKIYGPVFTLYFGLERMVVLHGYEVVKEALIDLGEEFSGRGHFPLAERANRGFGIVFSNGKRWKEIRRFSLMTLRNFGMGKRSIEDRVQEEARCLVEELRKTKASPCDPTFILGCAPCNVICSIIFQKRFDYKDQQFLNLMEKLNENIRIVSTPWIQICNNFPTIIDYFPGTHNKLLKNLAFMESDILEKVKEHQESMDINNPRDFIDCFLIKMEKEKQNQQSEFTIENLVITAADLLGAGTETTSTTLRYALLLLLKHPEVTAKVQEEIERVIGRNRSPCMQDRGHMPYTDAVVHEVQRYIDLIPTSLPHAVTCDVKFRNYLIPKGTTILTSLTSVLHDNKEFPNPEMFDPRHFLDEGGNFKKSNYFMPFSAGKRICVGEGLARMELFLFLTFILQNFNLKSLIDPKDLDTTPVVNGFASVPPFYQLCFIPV

[6] = molecular target: Cytochrome P450 2D6 (Homo sapiens, UniProt P10635); test: Inhibition of cytochrome P450 2D6; assay type: ADME
Sequence of Cytochrome P450 2D6 (P10635 whole entry): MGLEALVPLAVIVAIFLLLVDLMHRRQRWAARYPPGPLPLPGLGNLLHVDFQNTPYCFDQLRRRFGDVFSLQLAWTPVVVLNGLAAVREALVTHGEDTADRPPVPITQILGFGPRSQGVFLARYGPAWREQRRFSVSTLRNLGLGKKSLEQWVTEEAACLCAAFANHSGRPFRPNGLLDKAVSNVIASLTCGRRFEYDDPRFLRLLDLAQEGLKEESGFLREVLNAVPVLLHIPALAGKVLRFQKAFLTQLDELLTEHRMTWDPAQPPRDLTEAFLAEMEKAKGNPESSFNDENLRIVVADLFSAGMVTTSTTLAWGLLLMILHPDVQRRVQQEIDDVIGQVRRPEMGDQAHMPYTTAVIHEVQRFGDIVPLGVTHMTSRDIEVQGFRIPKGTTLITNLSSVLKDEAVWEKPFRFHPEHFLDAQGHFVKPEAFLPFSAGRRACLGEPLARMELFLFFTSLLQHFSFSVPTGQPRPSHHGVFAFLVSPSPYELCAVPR

[7] = molecular target: Cytochrome P450 3A4 (Homo sapiens, UniProt P08684); test: Inhibition of cytochrome P450 3A4; assay type: ADME
Sequence of Cytochrome P450 3A4 (P08684 whole entry): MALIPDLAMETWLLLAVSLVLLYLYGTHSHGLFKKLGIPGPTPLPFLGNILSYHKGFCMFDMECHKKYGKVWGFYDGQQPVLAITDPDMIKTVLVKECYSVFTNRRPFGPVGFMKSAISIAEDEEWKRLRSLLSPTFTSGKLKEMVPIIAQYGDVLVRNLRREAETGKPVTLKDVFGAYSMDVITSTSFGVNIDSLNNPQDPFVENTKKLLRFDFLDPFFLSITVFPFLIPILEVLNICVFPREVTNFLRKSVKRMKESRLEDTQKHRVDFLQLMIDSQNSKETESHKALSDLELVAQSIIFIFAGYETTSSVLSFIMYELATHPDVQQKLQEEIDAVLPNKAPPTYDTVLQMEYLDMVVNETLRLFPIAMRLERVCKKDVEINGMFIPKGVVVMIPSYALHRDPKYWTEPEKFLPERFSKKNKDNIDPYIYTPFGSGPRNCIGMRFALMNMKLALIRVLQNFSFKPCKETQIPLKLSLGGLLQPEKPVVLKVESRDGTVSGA

[8] = molecular target: T2, Cytochrome P450 1A2 (Homo sapiens, UniProt P05177); test: Inhibition of cytochrome P450 1A2; assay type: ADME
T2 sequence (P05177 whole entry): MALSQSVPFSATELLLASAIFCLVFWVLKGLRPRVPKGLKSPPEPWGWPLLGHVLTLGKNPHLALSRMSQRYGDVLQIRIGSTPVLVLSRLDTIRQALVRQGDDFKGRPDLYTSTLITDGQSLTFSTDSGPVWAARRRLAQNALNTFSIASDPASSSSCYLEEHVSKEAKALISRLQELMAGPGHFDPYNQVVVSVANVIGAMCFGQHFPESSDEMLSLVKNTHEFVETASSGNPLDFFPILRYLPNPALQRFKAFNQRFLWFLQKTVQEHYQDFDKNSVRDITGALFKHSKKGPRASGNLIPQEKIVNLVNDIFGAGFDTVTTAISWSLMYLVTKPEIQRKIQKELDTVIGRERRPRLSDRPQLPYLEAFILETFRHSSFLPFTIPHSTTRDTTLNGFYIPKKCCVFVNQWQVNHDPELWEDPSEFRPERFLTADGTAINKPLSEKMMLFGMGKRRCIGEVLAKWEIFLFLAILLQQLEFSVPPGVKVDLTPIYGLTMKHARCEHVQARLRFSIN

[9] = tested on: Cavia porcellus; test: Inhibition of Freund's complete adjuvant-induced inflammatory hyperalgesia in guinea pig at 30 mg/kg, sc; assay type: functional; conditions: route subcutaneous
[10] = molecular target: Transient receptor potential cation channel subfamily V member 1 (Rattus norvegicus) (UniProt O35433)
Sequence of Transient receptor potential cation channel subfamily V member 1 (Rattus norvegicus) (O35433 whole entry): as the sequence (O35433 whole entry) above
Description: Antagonist activity against rat TRPV1 assessed as inhibition of capsaicin-induced calcium influx by FLIPR assay

[11] = molecular target: Transient receptor potential cation channel subfamily V member 1 (Cavia porcellus) (UniProt Q6R5A3)
Sequence of Transient receptor potential cation channel subfamily V member 1 (Cavia porcellus) (Q6R5A3 whole entry): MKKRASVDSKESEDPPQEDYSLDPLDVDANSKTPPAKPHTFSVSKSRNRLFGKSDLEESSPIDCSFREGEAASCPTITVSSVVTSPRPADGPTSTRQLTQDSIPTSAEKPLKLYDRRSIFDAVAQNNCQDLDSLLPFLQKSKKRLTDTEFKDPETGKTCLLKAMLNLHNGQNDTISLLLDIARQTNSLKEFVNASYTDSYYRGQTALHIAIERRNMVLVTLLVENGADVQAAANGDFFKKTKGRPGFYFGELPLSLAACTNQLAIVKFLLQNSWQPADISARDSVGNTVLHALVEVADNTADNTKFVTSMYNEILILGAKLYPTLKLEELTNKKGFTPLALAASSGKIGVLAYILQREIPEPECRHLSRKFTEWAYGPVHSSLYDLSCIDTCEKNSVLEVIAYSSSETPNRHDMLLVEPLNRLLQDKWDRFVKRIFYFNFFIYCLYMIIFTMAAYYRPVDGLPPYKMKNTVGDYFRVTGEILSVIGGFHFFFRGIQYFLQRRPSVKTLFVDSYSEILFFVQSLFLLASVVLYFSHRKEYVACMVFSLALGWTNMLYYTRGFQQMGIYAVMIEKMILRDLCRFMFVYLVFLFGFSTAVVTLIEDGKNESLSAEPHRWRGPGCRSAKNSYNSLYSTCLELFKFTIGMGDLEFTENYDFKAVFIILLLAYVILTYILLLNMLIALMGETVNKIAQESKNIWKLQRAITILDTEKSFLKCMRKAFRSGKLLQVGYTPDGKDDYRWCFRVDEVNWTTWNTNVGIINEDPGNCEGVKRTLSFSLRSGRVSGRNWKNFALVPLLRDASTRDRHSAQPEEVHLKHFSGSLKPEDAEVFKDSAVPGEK
Description: Antagonist activity against guinea pig TRPV1 assessed as inhibition of capsaicin-induced calcium influx by FLIPR assay

[12] = molecular target: T1, Transient receptor potential cation channel subfamily V member 1; test: Antagonist activity against human TRPV1 assessed as inhibition of capsaicin-induced calcium influx by FLIPR assay; assay type: functional

T1 sequence (Q8NER1 whole entry): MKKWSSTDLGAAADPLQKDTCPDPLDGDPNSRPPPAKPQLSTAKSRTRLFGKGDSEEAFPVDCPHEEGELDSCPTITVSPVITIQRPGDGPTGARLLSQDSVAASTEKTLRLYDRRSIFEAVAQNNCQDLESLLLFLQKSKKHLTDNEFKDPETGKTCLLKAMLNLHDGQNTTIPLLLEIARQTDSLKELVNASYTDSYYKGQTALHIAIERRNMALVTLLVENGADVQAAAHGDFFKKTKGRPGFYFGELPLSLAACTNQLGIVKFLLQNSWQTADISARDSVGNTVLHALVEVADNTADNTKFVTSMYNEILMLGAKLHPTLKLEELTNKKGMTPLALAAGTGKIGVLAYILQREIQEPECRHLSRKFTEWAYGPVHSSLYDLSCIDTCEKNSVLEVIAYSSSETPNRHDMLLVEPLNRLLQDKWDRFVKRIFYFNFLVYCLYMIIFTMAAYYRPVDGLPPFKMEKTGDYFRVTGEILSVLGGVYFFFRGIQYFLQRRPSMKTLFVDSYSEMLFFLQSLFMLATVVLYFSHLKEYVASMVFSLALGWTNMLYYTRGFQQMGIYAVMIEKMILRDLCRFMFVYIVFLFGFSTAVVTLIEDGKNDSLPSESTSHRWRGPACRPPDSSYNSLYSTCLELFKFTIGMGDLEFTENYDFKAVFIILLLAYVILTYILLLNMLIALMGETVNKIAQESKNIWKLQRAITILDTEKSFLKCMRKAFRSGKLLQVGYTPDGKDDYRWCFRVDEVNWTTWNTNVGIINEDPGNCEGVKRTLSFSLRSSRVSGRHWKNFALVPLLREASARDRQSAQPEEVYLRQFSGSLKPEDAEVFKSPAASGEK

Compound	pKb [12]	also measured
O=C(Nc1ccc2cccnc2c1)c1ccc(-c2ccccc2)nc1	–	IC50 [1]: 0.00794 µM; IC50 [2]: 0.0251 µM; CL [3]: < 5 mL/min/g; IC50 [4]: > 18 µM; IC50 [5]: > 18 µM; IC50 [6]: > 18 µM; IC50 [7]: > 18 µM; IC50 [8]: > 18 µM; inhibition in vivo at 30 mg/kg [9]: 32%; pKb [10]: 8.4; pKb [11]: 8.4
CN1CCCc2ccc(NC(=O)c3ccccc3-c3ccccc3)cc21	< 6.6	–
CN1CCCc2cccc(NC(=O)c3ccc(-c4ccccc4)cc3)c21	< 6.3	–
O=C(Nc1ccc2ccc(O)nc2c1)c1ccc(-c2ccccc2)cc1	8.5	–
Cc1cc(C(=O)Nc2ccc3c(c2)N(C)CCC3)ccc1-c1ccccc1	7.4	–
CN1CCCc2ccc(NC(=O)c3ccc(-c4ccccc4)nc3)cc21	7.8	CL [3]: 4 mL/min/g
O=C(Nc1cccc2cccnc12)c1ccc(-c2ccccc2)cc1	< 6.5	–
CN1CCCc2ccc(NC(=O)c3ccc(-c4cncnc4)cc3)cc21	6.9	–
COc1cc(-c2ccccc2)ccc1C(=O)Nc1ccc2c(c1)N(C)CCC2	< 6.8	–
CC(=O)c1cccc(-c2ccc(C(=O)Nc3ccc4c(c3)N(C)CCC4)cc2)c1	7	–
CN1CCCc2ccc(NC(=O)c3ccc(-c4ccsc4)cc3)cc21	7.8	–
CNS(=O)(=O)c1cccc(-c2ccc(C(=O)Nc3ccc4c(c3)N(C)CCC4)cc2)c1	7	–
O=C(Nc1ccc2ccncc2c1)c1ccc(-c2ccccc2)cc1	7.4	–
O=C(Nc1cccc2ncccc12)c1ccc(-c2ccccc2)cc1	< 6.5	–
CN1CCCc2ccc(NC(=O)c3cccc(-c4ccccc4)c3)cc21	< 6.8	–
CN(C)CCN1CCCc2ccc(NC(=O)c3ccc(-c4ccccc4)cc3)cc21	7.4	–
CN1CCCc2cc(NC(=O)c3ccc(-c4ccccc4)cc3)ccc21	7.1	–
Cc1ccc2ccc(NC(=O)c3ccc(-c4ccccc4)cc3)cc2n1	8	–

Compound	pKb [12]	also measured
CN(C)C(=O)c1ccc(-c2ccc(C(=O)Nc3ccc4c(c3)N(C)CCC4)cc2)cc1	7.1	–
CN1CCCc2ccc(NC(=O)c3ccc(-c4ccccc4)cc3)cc21	7.5	CL [3]: 7 mL/min/g
CN1CCCc2ccc(NC(=O)c3ccc(-c4ccccc4)s3)cc21	7	–
O=C(Nc1ccc2cccnc2c1)c1ccc(-c2ccccc2)cc1	9.4	–
CN1CCCc2ccc(NC(=O)c3ccc(-c4cnccn4)cc3)cc21	7.1	–
COCCN1CCCc2ccc(NC(=O)c3ccc(-c4ccccc4)cc3)cc21	7.3	–
O=C(Nc1ccc2ncccc2c1)c1ccc(-c2ccccc2)cc1	6.9	–
CC(=O)NCCN1CCCc2ccc(NC(=O)c3ccc(-c4ccccc4)cc3)cc21	6.9	–
CN1CCCc2ccc(NC(=O)c3ccc(-n4cccn4)cc3)cc21	6.9	–
O=C(Nc1cccc2cnccc12)c1ccc(-c2ccccc2)cc1	7.7	–
CN1CCCc2ccc(NC(=O)c3ccc(-c4ccccc4)cc3Cl)cc21	7.1	–
O=C(Nc1ccc2c(c1)NCCC2)c1ccc(-c2ccccc2)cc1	7.7	–
O=C(Nc1ccc2cnccc2c1)c1ccc(-c2ccccc2)cc1	7.7	–
CN1CCCc2ccc(NC(=O)c3cnc(-c4ccccc4)cn3)cc21	< 6.8	–
CC(=O)N1CCCc2ccc(NC(=O)c3ccc(-c4ccccc4)cc3)cc21	7.2	–
CN1CCCc2c(NC(=O)c3ccc(-c4ccccc4)cc3)cccc21	< 6.5	–
CN1CCCc2ccc(NC(=O)c3ccc(-c4cccs4)cc3)cc21	7.6	–
COCC(=O)N1CCCc2ccc(NC(=O)c3ccc(-c4ccccc4)cc3)cc21	7.2	–
